Laboratory results as given in patent US6410037B1, “Anti-pruritic compositions” (Roche Consumer Health AG, priority 1999, dated 2002).

Tests used:
[1] = system: peritoneal mastocytes of rat; test: Histamine release by peritoneal mastocytes of rat stimulated by substance P (spectrofluorimetry with OPT); type: cell-based; conditions: 10 μg/ml Ca-panthothenate and 7.5 μg/ml glycine, taken separately or together; substance P 10 μM
Method: Peritoneal mastocytes of rat were incubated with the test products and the substance P for 2 minutes at 37° C. in the following medium: sodium phosphate buffer 4 mM; potassium phosphate buffer 2.7 mM; NaCl 0.145 M; KCl 2.7 mM; CaCl2 0.9 mM; BSA (bovine serum albumin 0.175% (w/v). At the end of the incubation, histamine released by the mastocytes was quantified by spectrofluorimetry with ortho-phthalaldehyde (OPT) (R. Hakanson, A. I. Ronnberg and K. Sjolund, Analy. Biochem., 47,1972, pp. 356-370). The measurements were carried out by means of a multiplate spectrofluorimeter (Cytofluor 2350, MILLIPORE). Data groups (control and treated groups) were compared using a one-way analysis of variance (ANOVA 1, p<0.05), following by a Dunnett' test (p<0.05).

human skin tissue = test: Histamine release by human skin discs stimulated by substance P (ELISA); type: cell-based
Method: Test were carried out on peritoneal mastocytes of rat stimulated by the substance P (10 μM), or on human skin tissue.
The skin tissue assay system was prepared from normal adult skin collected after abdominal plastic surgery. The subject was a person (subject M1085). The skin tissue specimen was rinsed in Krebs bicarbonate solution consisting of: NaCl 118 mM; KCl 5.4 mM; NaH2PO4 1 mM; MgSO4 1.2 mM, CaCl2 1.9 mM; NaHCO3 25 mM and D-glucose 11.1 mM. Skin discs of about 8 mm of diameter were performed. Skin discs were cultured in RPMI 1640 medium supplemented with penicillin (100 UI/ml), streptomycin (110 μg/ml) and 2 mM glutamine. Skin discs were maintained at 37° C. in a humidified incubator under a 5% Co2/95% air atmosphere. Test products were incubated with the human skin discs and 100 μM of substance P for 2 hours at 37° C.
At the end of the incubation, histamine released by the human skin discs was quantified by ELISA (IMMUNOTECH). The results were expressed as pmoles of histamine released per gram of skin. Data groups (control and treated groups) were compared using a one-way analysis of variance (ANOVA 1, p<0.05), following by a Dunnett's test (p<0.05).

mastocytes = conditions: cited from earlier work

Compound | Inhibition of histamine release (in words) [1] | Effect of addition of glycine to Ca-pantothenate on inhibition of histamine release (in words) (human skin tissue; glycine 75 μg/ml added to Ca-pantothenate 100 μg/ml) | Histamine release by mastocytes (in words) (mastocytes) | Inhibition of histamine release (in words) (human skin tissue; already at a concentration of 25 μg/ml)
NCC(=O)O [Glycine] | do not act as inhibitors | further improves such inhibition | inhibits histamine release by mastocytes | –
calcium pantothenate [Ca-pantothenate] | do not act as inhibitors | – | – | acts as inhibitor of the histamine release
